The values below are quoted from earlier work in patent US7858118B2, “Extended release composition containing Tramadol” (Galephar Pharmaceutical Research, Inc., priority 2001, dated 2010).

Each structure is given as a SMILES string. Where two headings read alike, the source gives them in different places.

The conditions of series [1]: animal models.
For series [2] the following is noted: after oral administration of immediate release dosage form.
The conditions of series [3]: in words.
Setting [4] is: single 100 mg oral dose, healthy subjects.

Regarding `CN(C)C[C@H]1CCCC[C@]1(O)c1cccc(O)c1` [Example M1, O-desmethyl tramadol], the “potency relative to Tramadol in producing analgesia” value in series [1] is on record as “up to 6 times”. The “potency relative to Tramadol in u-opioid binding” value in the series with μ-opioid receptors is given as 200 times.

With `COc1cccc(C2(O)CCCCC2CN(C)C)c1` (stereo not shown) [Tramadol], for the setting “100 mg dose”, the “maximum plasma concentration of the [+]-enantiomer of Tramadol” value was 168 ± 36 ng/mL and the “maximum plasma concentration of the [−]-enantiomer of Tramadol” value is 148 ± 33 ng/mL. Moreover, the “maximum plasma concentration of the [−]-M1 enantiomer” value (100 mg dose of Tramadol, first value of the pair) is 35 ± 10 ng/mL. In addition, for the setting “100 mg dose of Tramadol, second value of the pair”, the “maximum plasma concentration of the other M1 enantiomer (not given)” value was 26 ± 13 ng/mL. Where the note is “100 mg four times daily”, the “maximum plasma concentration at steady state” value is 592 ± 177 ng/mL and the “time to steady state” value is reported as 2 days. Also, the mean absolute bioavailability result (100 mg oral dose) is listed as “≈ 75%”. Moreover, under “immediate release, oral (b6)”, the “time to peak plasma concentrations” value is “≈ 2 hours”. Also, the plasma half-life (multiple dosing) is 7 h. Further, the “effect of food on rate or extent of absorption” value (oral, immediate release) is “does not significantly affect”. Also, for the setting “single 100 mg oral dose of Tramadol”, the “mean peak plasma concentration of the active mono-O-desmethyl metabolite” value is 55 ± 20 ng/mL. Further, the “time of peak plasma concentration of the mono-O-desmethyl metabolite” value (single 100 mg oral dose of Tramadol, post-dose) is on record as “≈ 3 hours”. Under setting [4], the “mean peak plasma concentration of Tramadol” value is 308 ± 78 ng/mL and the “time of mean peak plasma concentration of Tramadol” value is given as “≈ 2 hours”. Besides, the plasma half-life (single dosing) is 6 h. In series [2], the onset of analgesia was not above 1 h. Besides, the “solubility in water and body fluids” value in series [3] is on record as “extremely high solubility”.
